Experimental data as given in patent publication US20180106782A1, “HIGH THROUGHPUT CARDIOTOXICITY SCREENING PLATFORM” (The Board of Trustees of the Leland Stanford Junior …, priority 2016, published 2018).

Tested on: μpatterned hiPSC-CMs
Assay: cell movement from brightfield videos of beating μpatterned hiPSC-CMs (cross-correlation within ROI)
Format: cell-based, human
Settings: for aδ (temporal asynchronicity) / d (displacement) / VR (peak velocity of relaxation) / VC (peak velocity of contraction) / aθ (spatial asynchronicity): brightfield, single cell
Method: We imaged the movement of beating hiPSC-CMs and the displacement of fluorescent microbeads embedded in polyacrylamide substrates with a Zeiss Axiovert 200M inverted microscope equipped with a Zeiss Axiocam MRm CCD camera. This microscope also contained an environmental chamber (PeCon) to set temperature at 37° C. Unless otherwise noted, we acquired microscopy videos while electrically pacing hiPSC-CMs with 10 ms-wide bipolar pulses of electric-field stimulation at 10-15 V with a frequency of 1 Hz (Myopacer, lonOptix). To induce contractile changes in hiPSC-CMs, we added drugs known to affect CM contractile machinery to the culture medium. We analyzed the mechanical output of cells after adding drugs. […] We exposed single cells to concentrations of 0.1 μM and then 1 μM of isoproterenol (Sigma, Saint Louis, Mo.) to test how the contractile activity of each cell varied after adding different amounts of isoproterenol to the medium. Omecamtiv mecarbil (Adooq Bioscience, Irvine, Calif.) was also added to the cell culture medium at 10 nM or 0.1 μM to detect different variations in the contractile response of hiPSC-CMs after adding one of these concentrations. We acquired videos of single beating hiPSC-CMs imaged with differential interference contrast microscopy at frame rates higher than 30 fps for a time between 4 and 10 s. We used MATLAB (R2014b version, Mathworks) to convert pixels of each frame to microns. Zeiss files (.czi) contained information on the pixel dimensions and were imported into MATLAB using the Bioformats package. ([…] 2010) We also confirmed the software calibration with calibration slides (Electron Microscopy Sciences). For each video of a beating single cell, we selected a region of interest (ROI) around the borders of the cell and analyzed average displacements within this ROI (FIG. 1B). For this purpose, we selected a baseline frame, within all the frames of the video, which represented the relaxed state of the cell and calculated average displacement within the ROI for the remaining frames relative to the baseline frame. As noted bellow, this procedure was automated. We then calculated displacements from microscopy videos with cross-correlation approaches: digital image correlation (DIC) and particle image velocimetry (PIV) approaches. […] Cross-correlation is done between sub-blocks of the image and the highest correlation indicates the maximum likelihood that blocks match. We tested the following cross-correlation algorithms: PIVIab, ImageJ PIV (Tseng 2012) and Ncorr. PIVIab and Ncorr were written in MATLAB, while ImageJ PIV is a plugin for ImageJ (NIH). Ncorr generally performs better, but uses more computational time. (Blaber 2015) We measured two parameters of asynchronicity of contractile movement within the ROI: spatial asynchronicity (aθ) of contractile movement and temporal asynchronicity (aδ) of contractile movement. Spatial synchronicity occurs when the different regions of the cell move along the same directions and temporal synchronicity occurs when all the regions of the cell move at the same time. To calculate aθ, we first computed the direction of movement (θ) for every movement vector of different regions i inside the ROI (FIG. 1B) at each frame as defined by For the calculation of aδ, we first determined the mean offset time b between the peaks of the displacement curves of different regions i (dcurrent) in the ROI and the peaks of the mean displacement ([…] occurs within the same ROI by mean, cross-correlation between the two curves, then refined this offset result using main peaks only (FIG. 8A): […]

Q: For CC(C)NCC(O)c1ccc(O)c(O)c1 (centres unmarked) [isoproterenol], which “aδ (temporal asynchronicity)” value (ISO 0.1 (μM per FIG. 4), no ISO: 0.01) is on record?
A: 0.02 s

Q: What about the “d (displacement)” value (ISO 0.1 (μM per FIG. 4), no ISO: 1.09) of the same compound?
A: 1.3 μm

Q: What about the “VR (peak velocity of relaxation)” value (ISO 0.1 (μM per FIG. 4), no ISO: 3.78) of the same compound?
A: 5.37 μm/s

Q: And the “VC (peak velocity of contraction)” value (ISO 0.1 (μM per FIG. 4), no ISO: 6.85)?
A: 9.3 μm/s

Q: And the “aθ (spatial asynchronicity)” value (ISO 0.1 (μM per FIG. 4), no ISO: 31.4)?
A: 75.5 °

Q: What about the “aδ (temporal asynchronicity)” value (ISO 1 (μM per FIG. 4), no ISO: 0.01) of the same compound?
A: 0.02 s

Q: What about the “d (displacement)” value (ISO 1 (μM per FIG. 4), no ISO: 1.09) of the same compound?
A: 0.68 μm

Q: And the “VR (peak velocity of relaxation)” value (ISO 1 (μM per FIG. 4), no ISO: 3.78)?
A: 3.65 μm/s

Q: What about the “VC (peak velocity of contraction)” value (ISO 1 (μM per FIG. 4), no ISO: 6.85) of the same compound?
A: 5.34 μm/s

Q: And the “aθ (spatial asynchronicity)” value (ISO 1 (μM per FIG. 4), no ISO: 31.4)?
A: 25.3 °

Q: And the “variations of d, VC, VR, t̂ from brightfield videos between isoproterenol concentrations” value (six cells, 0.1 and 1 μM isoproterenol (FIG. 9))?
A: did not yield differences in variations of parameters with statistical significance

Q: Which results are given for COC(=O)N1CCN(Cc2cccc(NC(=O)Nc3ccc(C)nc3)c2F)CC1 [omecamtiv mecarbil]?
A: acute dmax from brightfield videos (0.1 μM omecamtiv mecarbil, single cell (FIG. 6H)): considerable acute increase; absolute values of VC and VR from brightfield videos, acute (0.1 μM omecamtiv mecarbil, single cell (FIG. 6I)): increase; aδ (temporal asynchronicity) (OM 0.1 μM (FIG. 6), row 'acute', no OM: 0.03): 0.21 s; d (displacement) (OM 0.1 μM (FIG. 6), row 'acute', no OM: 0.79): 0.18 μm; VR (peak velocity of relaxation) (OM 0.1 μM (FIG. 6), row 'acute', no OM: 2.87): 0.54 μm/s; VC (peak velocity of contraction) (OM 0.1 μM (FIG. 6), row 'acute', no OM: 3.53): 0.71 μm/s; aθ (spatial asynchronicity) (OM 0.1 μM (FIG. 6), row 'acute', no OM: 44.5): 70.1 °; aδ (temporal asynchronicity) (OM 0.1 μM (FIG. 6), row 'chronic', no OM: 0.03): 0.04 s; d (displacement) (OM 0.1 μM (FIG. 6), row 'chronic', no OM: 0.79): 1.05 μm; VR (peak velocity of relaxation) (OM 0.1 μM (FIG. 6), row 'chronic', no OM: 2.87): 3.42 μm/s; VC (peak velocity of contraction) (OM 0.1 μM (FIG. 6), row 'chronic', no OM: 3.53): 4.35 μm/s; aθ (spatial asynchronicity) (OM 0.1 μM (FIG. 6), row 'chronic', no OM: 44.5): 68.8 °
